The values below come from US4005073A, “6-Acyl derivatives of aminopenicillanic acid” (priority 1974, dated 1977).

Where two headings read alike, the source gives them in different places.

One series is described as follows: Acute Toxicity. The settings on record: mouse, in vivo. From the text: (§1) |CD50 (mg/kg) in the mouse
Another series relates to Proteus Vulganis. The series can be described thus: CD50 in the mouse, Proteus Vulganis. It counts as in vivo.
Excerpt: as §1

The subject of a further series is Escherichia coli. The series can be described thus: CD50 in the mouse, Escherichia coli. It counts as in vivo.
Excerpt: as §1

In series [1] the test system is S. aureous (penicillin resistant). The series can be described thus: CD50 in the mouse, S. aureous (penicillin resistant). It counts as in vivo.
Excerpt: as §1

The subject of the next series is Pseudomonas Aeriginmos. The series can be described thus: CD50 in the mouse, Pseudomonas Aeriginmos. It counts as in vivo.
Excerpt: as §1

[2] abbreviates: Pseudomonas, po, read-out: CD50.

In turn, `CC(C)CC(C(=O)O)C(=O)N[C@@H]1C(=O)N2[C@@H]1SC(C)(C)[C@@H]2C(=O)O` (some centres unmarked) [(1-Carboxy-3-methyl-butyl)-penicillin di-sodium] gave an LD50 in “Acute Toxicity” (iv) of 2000 to 4000 mg/kg. In addition, the ED50 with Proteus Vulganis (sc, S.C.) worked out at 6.2 mg/kg; with Escherichia coli (sc, S.C.), 2.4 mg/kg; in series [1] (sc, S.C.), 34 mg/kg; with Pseudomonas Aeriginmos (Pseudomonas, sc, read-out: CD50), 124 mg/kg.
Regarding `CC(C)CC(C(=O)N[C@@H]1C(=O)N2[C@@H]1SC(C)(C)[C@@H]2C(=O)O)C(=O)OCc1ccccc1` (some centres unmarked) [(1-benzyloxycarbonyl-3-methylbutyl)-penicillin sodium], the LD50 in “Acute Toxicity” (po) is 2500 to 5000 mg/kg. In addition, the ED50 was 8.9 mg/kg with Proteus Vulganis (po, P.O.); 9 mg/kg with Escherichia coli (po, P.O.); 142 mg/kg with Pseudomonas Aeriginmos (setting [2]).
For `CCOC(=O)C(CC(C)C)C(=O)N[C@@H]1C(=O)N2[C@@H]1SC(C)(C)[C@@H]2C(=O)O` (some centres unmarked) [(1-[ethoxycarbonyl-3-methylbutyl)]-penicillin sodium], the LD50 is 5000 mg/kg in the series “Acute Toxicity” and 2000 to 4000 mg/kg in “Acute Toxicity” (iv). In addition, the ED50 is 14 mg/kg with Escherichia coli (po, P.O.); 2.1 mg/kg with Escherichia coli (sc, S.C.); about 100 mg/kg in series [1] (po, P.O.); 22 mg/kg in series [1] (sc, S.C.); about 100 mg/kg with Pseudomonas Aeriginmos (setting [2]); about 80 mg/kg in the series with Pseudomonas Aeriginmos (sc, Pseudomonas Aeriginmos, mouse, S.C., read-out: CD50 (the source's name)).
